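96-well plates; 48 h exposure; 5 concentrations. Endpoints by linear interpolation between flanking doses. Not reached: highest tested concentration assigned. GI50 marks 50% less growth. TGI marks complete inhibition of growth.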
System: MDA-MB-468 breast
Test: NCI tumour cell line growth inhibition, 48 h

| SMILES | GI50 [nM] | TGI [nM] |
| --- | --- | --- |
| CCNC(=O)c1cc2c(-c3cc(C(C)(C)O)ccc3Oc3c(C)cc(F)cc3C)cn(C)c(=O)c2[nH]1 | 1170 | 7450 |
| Cc1c(COc2cc(OCc3cccc(C#N)c3)c(CN3C[C@H](O)C[C@@H]3C(=O)O)cc2Cl)cccc1-c1ccc2c(c1)OCCO2 | 6720 | 20500 |
| CC1(C)[C@@H](O[C@@H]2OC[C@@H](O[C@@H]3O[C@H](CO)[C@@H](O)[C@H](O)[C@H]3O[C@@H]3OC[C@@H](O)[C@H](O)[C@H]3O)[C@H](O)[C@H]2O[C@@H]2O[C@H](CO)[C@@H](O)[C@H](O)[C@H]2O)CC[C@]2(C)[C@H]3CC[C@]45OC[C@@]6(CC[C@](C)(C=O)C[C@H]64)[C@H](O)C[C@@]5(C)[C@]3(C)CC[C@@H]12 | 941 | 1960 |
| COc1ccc(Nc2c3ccccc3nc3ccccc23)cc1 | 547 | 4530 |
| CCC1CCc2nc3sc(C(=O)Nc4cccc(F)c4)c(N)c3cc2C1 (configuration not stated) | 471 | > 100000 |
| NC(=O)c1cc(-c2ccc(F)cc2)cc(-c2ccncc2)c1N | 8170 | > 25000 |
| COc1ccc(OC)c(/C=C(/C)[N+](=O)[O-])c1 | 1270 | 2680 |
| Nc1nc(-c2ccccc2)nc(N)c1N=O | 1750 | 5700 |
| CCCCCCCCCCCCCC[n+]1ccc2c(C)c3c(c(C)c2c1)c1cc(O)ccc1n3CC | 176 | 654 |
| N#CSCC1CC(O)(c2ccccc2)CC(c2ccc(F)cc2)O1 (configuration not stated) | 2250 | 7550 |
| C[C@@H](CO)[C@@H]1CCC=C2CC[C@]3(C)[C@H](CC[C@@H]4[C@@]5(C)CCCNC(C)(C)[C@@H]5CC[C@]43C)[C@H]21 | 1800 | 3400 |
| CN(CC(=O)N(Cc1ccc(C2CCCCC2)cc1)c1ccc(C(=O)O)c(O)c1)S(=O)(=O)c1c(F)c(F)c(F)c(F)c1F | 1760 | 3760 |
| COc1ccc(-c2nc3ccccn3c2/C=C/C(=O)c2cc(OC)c(OC)c(OC)c2)cc1 | 11900 | 65500 |
| COc1cc(Nc2ccnc(NCCCNc3ccnc4cc(Cl)ccc34)n2)cc(OC)c1 | 1490 | 3180 |
| Cc1cc(Cl)ccc1NC(=O)c1cc2ccccc2cc1O | 1780 | 7420 |
| Nc1nc(-c2ccc(F)cc2)c(-c2ccc3ncccc3n2)s1 | – | > 25000 |
| O=C(/C=C/c1cc([N+](=O)[O-])ccc1Cl)c1ccccc1 | 8460 | 22100 |
| O=C(NCc1ccc(Cn2c(=O)sn(-c3ccccc3)c2=O)cc1)OCc1ccc2c(Br)cc(Br)c(O)c2n1 | 500 | 2010 |
| CCCCCCCCCCCC1CCCC(C)N1 (configuration not stated) | 15500 | 31000 |

| SMILES | GI50 [nM] | TGI [nM] |
| --- | --- | --- |
| CC(=Nc1ccccc1)C1=C(O)C(Cc2ccccc2)NC1=O (configuration not stated) | 17.3 | 50.2 |
| Cc1cccc2c(=O)c3c(sc12)c(NCCNCCO)nc1ccccc13 | 1090 | 2500 |
| COc1cc(/C=C/C(=O)c2ccc(NC(=O)CN3CCN(c4cc5c(cc4F)c(=O)c(C(=O)O)cn5C4CC4)CC3)cc2)cc(OC)c1OC | 358 | – |
| NC(=O)c1ccc2nc(-c3ccc(Oc4ccc(Cl)cc4)cc3)[nH]c2c1 | 10500 | 29300 |
| CN(C)c1ccc(Nc2cc(-c3cccc(OC(F)(F)F)c3)nc3ccc(N4CCCC4)cc23)cc1 | 2050 | 4380 |
| COc1ccc(Cn2cc3c(c2-c2ccc(OC)cc2)CCc2cnoc2-3)cc1 | 254 | 809 |
| CC(=O)O[C@]1(C(C)=O)CC[C@H]2[C@@H]3C=C(C)C4=CC(=O)CC[C@]4(C)[C@H]3CC[C@@]21C | 77700 | > 100000 |
| Cc1ccc2ccc3ccc(C)nc3c2n1.Cc1ccc2ccc3ccc(C)nc3c2n1.Oc1c(Cl)cc(Cl)c2ccc(CN3CCCCC3)nc12.[Ru] | 248 | 875 |
| Oc1[nH]c2ccc(Cl)cc2c1/C=c1/ccc2c(c1)N=C(c1ccc(F)cc1)N=2 | 2020 | 3570 |
| O=C(Nc1ccc2ncnc(Nc3ccc(Oc4cccc(F)c4)c(Cl)c3)c2c1)c1ccc(CNCCO)cc1 | 561 | 2020 |
| CC[C@@H](C(=O)[C@@H](C)[C@@H](O)[C@H](C)[C@@H]1O[C@@H]([C@@H](CC)C(=O)N(CC)CC)CC[C@@H]1C)C1O[C@]2(C=CC(=O)[C@]3(CC[C@@](C)([C@H]4CC[C@](O)(CC)[C@H](C)O4)O3)O2)[C@H](C)C[C@@H]1C (some centres not stated) | 943 | 3190 |
| O=[N+]([O-])c1c(Br)sc(Br)c1[N+](=O)[O-] | 1270 | 2910 |
| O=C1/C(=C/c2ccc(Cl)cc2)N=C(c2ccccc2)N1CCc1cccs1 | 13700 | 98200 |
| COc1cc2c(cc1Nc1nc(Nc3ccsc3C(N)=O)c3cc[nH]c3n1)N(C(=O)CN(C)C)CCC2(C)C | 471 | 2600 |
| CN1CCN(c2ccc3nc(-c4ccc5nc(-c6ccc(OCCC(C)(C)C)cc6)[nH]c5c4)[nH]c3c2)CC1 | 1910 | 4130 |
| Fc1ccc(Nc2nc3nonc3nc2Nc2ccc(F)cc2)cc1 | 281 | 1460 |
| CN1c2ccccc2C(C)(C)C12C=Cc1cc(O)ccc1O2 (configuration not stated) | 3460 | 16700 |
| Cc1cc(N(CCNc2ccnc3cc(Cl)ccc23)Cc2ccco2)nc(Cl)n1 | 1500 | 3070 |

Source: PubChem BioAssay (NCI)
